Assay [1] in a line: Modified Western blot: native PAGE gel of liver lysate incubated with fluorescent propeptide. It counts as binding, rat. The settings on record: FIG. 4. The text has this:
(§1) Rat liver tissue from an old (23 months) rat and mouse liver tissue from a young mouse (3 months) was obtained from Dr. Eric R. Blough (Biology department, Marshall University, Huntington, W. Va.). 0.104 g of liver tissue from the young mouse and 0.20 g of tissue from the old rat were placed in separate microcentrifuge tubes and washed thoroughly with phosphate buffered saline (“PBS”).
(§2) Rat liver tissue was lysed using CellLytic-MT lysis buffer (Sigma) following the procedure provided from Sigma. Along with the lysis buffer, a protease inhibitor cocktail containing pepstatin, aprotinin, and leupeptin was added. The samples were then centrifuged for 15 minutes at 14,000 rpm. Supernatant containing the cellular proteins was pulled from the samples and centrifuged for another 10 minutes.
(§3) Proteins from the lysate were separated by Native PAGE on a 12% polyacrylamide gel. The gel was run using Tris/Glycine running buffer for one hour at 200 V.
(§4) After protein separation by PAGE was complete, a picture of the gel was taken using an ultraviolet (“UV”) lamp to excite any fluorescent molecules. The UV exposure time was 20 s. The gel was then incubated with the fluorescent labeled Apo AI propeptide in Tris buffered saline with 5% Tween (“TBST”) overnight on a rocking platform. Another picture of the gel was taken using the same UV exposure time as the initial picture. […]
(In general: A western blot detects proteins with antibodies after separation by electrophoresis.)

Test in assay [2]: as above
The settings on record: young mouse (3 months) liver lysate, FIG. 5 Arrow 1. Type of assay: binding.
From the text: as §1, §2, §3, §4

Assay [3] relates to human epithelial cells. Nature of the assay: Confocal microscopy of epithelial cells treated with fluorescently labeled propeptide. Type of assay: cell-based. The text has this: (§5) A peptide with the amino acid sequence WEFWQQ (corresponding to the rat sequence of the Apo AI propeptide) containing a fluorescein group attached to the N-terminus was custom synthesized by Cambridge biochemical reagents. Synthetic version of the peptide was made using standard Merrifield peptide synthesis techniques (http://en.wikipedia.org/wiki/Peptide_synthesis). Other standard techniques that would apply here would be the use of bacteria to synthesize large quantities of the peptide (http://en.wikipedia.org/wiki/Recombinant_DNA).
(§6) Liver tissue was obtained from lean Zucker rats and placed in liver digest media. The liver digest media was then drained into a conical vial and the liver was placed in another sterile beaker of hepatozyme wash media. Clean gauze was placed at the opening to the conical vials and the liver was washed with the hepatozyme wash media yet again. This process filtered the liver cells into the conical vials. The cells were centrifuged for five minutes at 6000 rpm. The cells were washed thoroughly with hepatozyme wash media and then resuspended in 5% Fetal Bovine Serum, 2 mM glutamine hepatozyme wash medium and pipetted into collagen wells. The collagen well plates were incubated at 37° Celsius and 5% CO2. After 19 hours, the media was replaced with clean, fresh Hepatozyme-SFM (3 mL). The media was further supplemented with L-glutamine (2 mM) after 23 hours. […]

Assay [4] addresses T1, oxysterol receptor LXRβ (Rattus norvegicus, UniProt Q62755).
T1 construct: Liver tissue from a lean Zucker rat was lysed; from tissue; host or cells: liver of lean Zucker rat (lysate, CellLytic-MT buffer)
T1 sequence (Q62755 1-446): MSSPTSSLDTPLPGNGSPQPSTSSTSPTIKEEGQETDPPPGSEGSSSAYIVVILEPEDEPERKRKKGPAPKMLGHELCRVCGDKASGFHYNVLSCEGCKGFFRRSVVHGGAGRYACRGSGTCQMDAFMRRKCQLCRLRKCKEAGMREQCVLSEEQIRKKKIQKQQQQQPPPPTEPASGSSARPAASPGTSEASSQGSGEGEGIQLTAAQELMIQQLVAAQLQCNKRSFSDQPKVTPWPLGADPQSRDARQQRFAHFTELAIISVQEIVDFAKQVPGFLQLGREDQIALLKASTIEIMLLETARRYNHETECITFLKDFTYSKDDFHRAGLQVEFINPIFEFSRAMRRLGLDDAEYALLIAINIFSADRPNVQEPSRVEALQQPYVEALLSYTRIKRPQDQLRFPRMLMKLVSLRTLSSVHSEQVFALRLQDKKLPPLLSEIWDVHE
Nature of the assay: Peptide bead pull-down from liver lysate, SDS-PAGE, MALDI-TOF peptide mass fingerprint. The settings on record: lean Zucker rat liver lysate; peptide attached to benzyloxybenzylbromide resin at N-terminus; Mascot search; FIG. 6. It counts as binding. The text has this: The Apo AI propeptide was attached to benzyloxybenzylbromide resin at its N-terminus. Rat liver tissue was lysed using CellLytic-MT lysis buffer using the procedure outlined above. This buffer may be purchased from Sigma-Aldrich Corp. (“Sigma”) (St. Louis, Mo.). […] The protein lysate was removed and added to the peptide modified beads. The solution was shaken for one hour; the supernatant was then removed leaving only the resin beads. The resin beads were washed three times with PBS, and then 30 μl of gel loading solution was added to the resin beads. The solution was heated at 100° C. for five minutes and then loaded onto a polyacrylamide gel (4-20% polyacrylamide) and separated by SDS-PAGE.
Protein bands of interest were cut from the gel and digested with trypsin overnight following the procedure used at University of California, San Francisco (http://donatello.ucsf.edu/ingel.html). The peptide fragments were analyzed on a Bruker MALDI-TOF mass spectrometer which provided the peptide fragment molecular weight maps of the proteins for protein identification.
Another set of experiments were designed to determine the identity of any proteins capable of binding to the Apo AI propeptide. The Apo AI propeptide, WEFWQQ, was attached to benzyloxybenzylbromide resin beads at its N-terminus. […]

Assay [5] concerns Zucker rat liver cells. Briefly: Confocal microscopy of liver cells treated with fluorescently labeled propeptide. Type of assay: cell-based.
From the text: as §5, §6

The values below come from patent US20110288017A1, “APO-LIPOPROTEIN PROPEPTIDE” (priority 2010, published 2011).

With “WEFWQQ (PROPEP (1)..(6); listed as Rattus norvegicus)”, the “binding to a protein on the gel (new fluorescent band after incubation)” value in assay [1] (old rat (23 months) liver lysate, overnight incubation) was “binding to a protein on the gel”. For the same substance, the “fluorescence of higher molecular weight band (possibly DNA) after peptide incubation” value in assay [1] (old rat liver lysate) is given as “increase in the fluorescence intensity of a higher molecular weight band”. In assay [2], the “fluorescent band after incubation with the peptide” value was “same band as was seen in FIG. 4”. In addition, the “time to entry into cells after peptide application” value in assay [3] is on record as “within seconds”; in assay [5] (liver cells, fluorescently labeled peptide), “within seconds”. For the same substance, the “identity of the protein bound to the peptide beads (band at about 45 kDa)” value in assay [4] is on record as “identified the protein as the oxysterol receptor LXRβ”. The “entry of the propeptide into cells and nucleus (confocal image)” value in assay [5] (Zucker rat liver cells, peptide labeled at N-terminus with fluorescein, FIG. 1) was “clearly entering the cells and entering the nucleus of the cells”.
